Blank lines part the entries; values can stand above or below the compound they belong to.
Key:
[1] = cited from earlier work
[2] = system: high-risk mCSPC; settings: cited from earlier work
[3] = system: prostate cancer; settings: cited from earlier work
[4] = equivalent glucocorticoid dose; cited from earlier work
[5] = system: plasma proteins, primarily albumin; settings: cited from earlier work
[6] = Chemical compatibility of Olaparib with prednisolone on storage; assay type: physicochemical; settings: Olaparib and Prednisolone combined, 1 month in sealed containers at 40° C. and 75% RH
Method: An experiment was carried out to determine whether Olaparib is chemically compatible with prednisolone, both alone and in the co-amorphous form.

[7] = cited from earlier work; remark: listed apart in the source
[8] = system: prostate cancer with mutations in DNA repair genes; settings: cited from earlier work

Compound: CC(=O)O[C@H]1CC[C@@]2(C)C(=CC[C@@H]3[C@@H]2CC[C@]2(C)C(c4cccnc4)=CC[C@@H]32)C1 [Abiraterone acetate, [(3S,8R,9S,10R,13S,14S)-10,13-dimethyl-17-pyridin-3-yl-2,3,4,7,8,9,11,12,14,15-decahydro-1H-cyclopenta[a]phenanthren-3-yl] acetate]
water solubility [1]: less than 1 mg/mL
mOS ([2]; 1000 mg daily with prednisone 5 mg twice daily and GnRH agonist/antagonist): 53.3 months
mPFS ([2]; 1000 mg daily with prednisone and GnRH agonist/antagonist): 33.0 months
HR for mPFS vs placebo group ([2]; 95% CI, 0.39-0.55, P<0.001): 0.47
HR for mOS vs placebo arm ([2]; P<0.001): 0.62
HR for survival vs ADT-alone group ([3]; P<0.001): 0.63
3-year survival rate ([3]; in vivo): 83%

Compound: CC(=O)OCC(=O)[C@@]1(O)CC[C@H]2[C@@H]3CCC4=CC(=O)CC[C@]4(C)[C@H]3C(=O)C[C@@]21C [Cortisone acetate]
Equivalent amount [4]: 25 mg

Compound: CNC(=O)c1ccc(N2C(=S)N(c3ccc(C#N)c(C(F)(F)F)c3)C(=O)C2(C)C)cc1F [Enzalutamide, 4-[3-[4-cyano-3-(trifluoromethyl)phenyl]-5,5-dimethyl-4-oxo-2-sulfanylideneimidazolidin-1-yl]-2-fluoro-N-methylbenzamide]
water solubility [1]: less than 1 mg/mL

Compound: C[C@]12CCC(=O)C=C1CC[C@@H]1[C@@H]2[C@@H](O)C[C@@]2(C)[C@H]1CC[C@]2(O)C(=O)CO [Hydrocortisone]
Equivalent amount [4]: 20 mg

Compound: CC1(C)C(=O)N(c2ccc(C#N)c(C(F)(F)F)c2)C(=S)N1c1ccc(C(N)=O)c(F)c1 [N-desmethyl enzalutamide]
bound to plasma proteins [5]: 95%

Degradation on combined storage [6]: No degradations
Compound: O=C(c1cc(Cc2n[nH]c(=O)c3ccccc23)ccc1F)N1CCN(C(=O)C2CC2)CC1 [Olaparib]
water solubility [1]: about 0.06 mg/mL
administered dose recovered ([7]; after 7 days, total): approximately 86%
administered dose found in urine ([7]; after 7 days): 44%
administered dose obtained in feces ([7]; after 7 days): 42%
AUC ([7]; after a dose of 200 mg): 25800 ng·h/mL
increase of AUC with constant administration ([7]; constant administration): 26%
time to peak concentration ([7]; following oral administration): 1 to 3 h
effect of high-fat diet on peak concentration ([7]; high-fat diet): does not have an effect in the peak concentration
effect of high-fat diet on tmax ([7]; high-fat diet): can decrease the tmax
unchanged form, share of the circulating dose ([7]; in vivo): 70%
median time lived without evidence of cancer getting worse ([8]; cohort A (BRCA1, BRCA2 or ATM alterations)): 7.4 months
improvement of survival versus control ([8]; cohort A, versus abiraterone or enzalutamide): more than 4 months
overall survival ([8]; cohort A): 19.1 months
tumor response (tumors shrink) ([8]; in vivo): 33%

Compound: C[C@@H]1C[C@H]2[C@@H]3C[C@H](F)C4=CC(=O)C=C[C@]4(C)[C@H]3[C@@H](O)C[C@]2(C)[C@@]1(O)C(=O)CO [Paramethasone]
Equivalent amount [4]: 2 mg

Degradation on combined storage [6]: No degradations
Compound: C[C@]12C=CC(=O)C=C1CC[C@@H]1[C@@H]2[C@@H](O)C[C@@]2(C)[C@H]1CC[C@]2(O)C(=O)CO [Prednisolone]
Equivalent amount [4]: 5 mg

Compound: C[C@]12C=CC(=O)C=C1CC[C@H]1[C@@H]3C[C@@H](O)[C@](O)(C(=O)CO)[C@@]3(C)C[C@H](O)[C@@]12F [Triamcinolone]
Equivalent amount [4]: 4 mg

Source: patent US20240269073A1, “CO-AMORPHOUS FORMS FOR USE IN CANCER THERAPY” (Zerion Pharma APS, priority 2021, published 2024)
